Where only a bound is given, the exact number is not on record here.

What is called EC50 is the concentration at which the effect is half-maximal.

For test [1], the target named is T1, uOR (Mus musculus, UniProt P42866). Put plainly: β-arrestin recruitment to uOR / receptor internalization. Type of test: cell-based. Details: expressed in transfected cells. The conditions noted are these: for Max Fold Efficacy: maximum signal/background ratio for uOR receptor internalization at the EC50; for EC50: recruitment of beta-arrestin to interact with uOR, bound given in μM, read-out: β-arrestin Recruitment EC50 ± SEM. From the text: The data provided in Tables 1A and 1B below were obtained using standard analytical techniques known to those skilled in the art. Such techniques are described in detail in C.
T1 sequence (P42866 whole entry): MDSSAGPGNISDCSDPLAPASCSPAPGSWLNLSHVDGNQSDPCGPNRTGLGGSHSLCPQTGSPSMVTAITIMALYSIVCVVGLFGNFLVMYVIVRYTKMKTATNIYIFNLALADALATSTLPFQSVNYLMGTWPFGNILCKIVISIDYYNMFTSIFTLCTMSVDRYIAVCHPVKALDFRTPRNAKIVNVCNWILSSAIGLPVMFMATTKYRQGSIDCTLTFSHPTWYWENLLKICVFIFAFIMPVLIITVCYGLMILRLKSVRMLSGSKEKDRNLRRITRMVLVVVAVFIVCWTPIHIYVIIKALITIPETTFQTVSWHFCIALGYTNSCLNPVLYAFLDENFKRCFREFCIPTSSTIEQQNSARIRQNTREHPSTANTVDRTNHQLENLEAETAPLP
[…] were transiently transfected (electroporation) with combinations of cDNA for hemagglutinin (HA-N terminus)-tagged uOR, beta-arrestin2 tagged with green fluorescent protein, mouse uOR tagged at the C terminus with yellow fluorescent protein and GRK-2. […] After addition of drug, cells were visualized using confocal microscopy. Multiple cells were recorded per dish after more than four separate transfection experiments—representative cells are shown in the manuscript.
The “β-arrestin Recruitment EC50±SEM” column in Table 2 below represents the degree to which each tested compound recruited beta-arrestin to interact with uOR. As will be appreciated by those skilled in the art, EC50 refers to the concentration of a drug which induces a response halfway between the baseline and maximum after a specified exposure time. In this instance, lower values indicate greater potency of the molecule, and this is […].
As will also be understood by those skilled in the art, “Max Fold Efficacy” refers to the maximum signal/background ratio that an agonist will induce or, conversely, that an antagonist will inhibit an agonist from inducing a response. In Table 2 below, the “Max Fold Efficacy” column indicates the strength of the signal increase over the control/background measurement for uOR receptor internalization at the E.C. 50.
For orientation: Activated receptors often draw arrestin, which recruitment assays turn into a signal.

For test [2], the target named is T1, uOR. The test is described as follows: Agonist induced ERK 1/2 phosphorylation (efficacy and potency relative to DAMGO).

As for `COC(=O)[C@@H]1C[C@H](OC(=O)Nc2ccc(OC(F)F)cc2)C(=O)[C@H]2[C@@]1(C)CC[C@H]1C(=O)O[C@H](c3ccoc3)C[C@]21C` [Formula Ia-v], the “Max Fold Efficacy” value at uOR [1] was 9.5. The results for the EC50 on uOR [1] and on uOR [2] were > 10 µM and 0.163 µM, respectively.

`COC(=O)[C@@H]1C[C@H](OC(=O)c2ccc(OC)cc2)C(=O)[C@H]2[C@@]1(C)CC[C@H]1C(=O)O[C@H](c3ccoc3)C[C@]21C`: at uOR [1], the “Max Fold Efficacy” value was 3.1 and the EC50 is > 10 µM. Moreover, on uOR [2], a half-maximal response (EC50) required 3.5 µM.

The values above are taken from US10556889B1, “Salvinorin derivatives” (Blue Sky Pharmaceuticals, LLC, priority 2018, dated 2020).
